Laboratory results reported in patent US20230127839A1, “COMPOUNDS AND COMPOSITIONS FOR TREATING CONDITIONS ASSOCIATED WITH STING ACTIVITY” (IFM Due, Inc., priority 2019, published 2023).

These molecules were tested against T1, hSTING (Homo sapiens, UniProt Q86WV6, G230A/H232R/R293Q/R71H) (assay: STING reporter assay (luciferase) in THP1-Dual KO-IFNAR2 cells stimulated with 2'3'cGAMP). Details: 2'3'cGAMP 15 μM, 24 h, luciferase reporter activity.
T1 construct: host or cells: THP1-Dual KO-IFNAR2 cells
T1 sequence (Q86WV6 whole entry R71H/G230A/H232R/R293Q): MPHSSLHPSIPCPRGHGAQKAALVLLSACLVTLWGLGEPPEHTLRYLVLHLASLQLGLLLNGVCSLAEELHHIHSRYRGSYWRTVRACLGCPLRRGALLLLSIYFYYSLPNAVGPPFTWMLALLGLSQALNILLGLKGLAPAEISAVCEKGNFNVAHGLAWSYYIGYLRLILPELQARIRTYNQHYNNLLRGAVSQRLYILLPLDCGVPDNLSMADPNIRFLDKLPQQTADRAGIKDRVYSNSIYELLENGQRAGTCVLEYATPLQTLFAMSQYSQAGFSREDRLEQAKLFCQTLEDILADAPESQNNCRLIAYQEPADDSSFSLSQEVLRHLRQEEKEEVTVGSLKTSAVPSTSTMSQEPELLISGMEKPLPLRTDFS
Assay type: cell-based
Protocol: STING pathway activation by the compounds described herein is measured using THP1-Dual™ cells (KO-IFNAR2).
THP1-Dual™ KO-IFNAR2 Cells (obtained from invivogen) are maintained in RPMI, 10% FCS, 5 ml P/S, 2 mM L-glut, 10 mM Hepes, and 1 mM sodium pyruvate.
Compounds are spotted in empty 384 well tissue culture plates (Greiner 781182) by Echo for a final concentration of 0.0017-100 μM. Cells are plated into the TC plates at 40 μL per well, 2×10E6 cells/mL. For activation with STING ligand, 2′3′cGAMP (MW 718.38, obtained from Invivogen), is prepared in Optimem media.
The following solutions are prepared for each 1×384 plate: • Solution A: 2 mL Optimem with one of the following stimuli: • 60 uL of 10 mM 2′3′cGAMP->150 μM stock • Solution B: 2 mL Optimem with 60 μL Lipofectamine 2000->Incubate 5 min at RT
2 mL of solution A and 2 ml Solution B is mixed and incubated for 20 min at room temperature (RT). 20 uL of transfection solution (A+B) is added on top of the plated cells, with a final 2′3′cGAMP concentration of 15 μM. The plates are then centrifuged immediately at 340 g for 1 minute, after which they are incubated at 37° C., 5% CO2, >98% humidity for 24 h. Luciferase reporter activity is then measured. EC50 values are calculated by using standard methods known in the art.
Luciferase reporter assay: 10 μL of supernatant from the assay is transferred to white 384-plate with flat bottom and squared wells. One pouch of QUANTI-Luc™ Plus us dissolved in 25 mL of water. 100 μL of QLC Stabilizer per 25 mL of QUANTI-Luc™ Plus solution is added. 50 μL of QUANTI-Luc™ Plus/QLC solution per well is then added. Luminescence is measured on a Platereader (e.g., Spectramax I3X (Molecular Devices GF3637001)).
Luciferase reporter activity is then measured. EC50 values are calculated by using standard methods known in the art.
With `COCCN1CCN(c2ncc(NC(=O)Nc3c[nH]c4cc(F)c(F)cc34)cc2C)CC1` [Compound 123, 1-(5,6-difluoro-1H-indol-3-yl)-3-(6-(4-(2-methoxyethyl)piperazin-1-yl)-5-methylpyridin-3-yl)urea] the EC50 was 5000 to 100000 nM.
`O=C(Nc1cnc(N2CCN(CCC(F)(F)F)CC2)c(Cl)c1)Nc1c[nH]c2ccc(Cl)cc12` [Compound 124, 1-(5-chloro-1H-indol-3-yl)-3-(5-chloro-6-(4-(3,3,3-trifluoropropyl)piperazin-1-yl)pyridin-3-yl)urea] showed an EC50 of 40 to 200 nM.
`N#Cc1cc(NC(=O)Nc2c[nH]c3cc(F)c(F)cc23)cnc1C1CC(F)(F)C1` [Compound 125, 1-(5-cyano-6-(3,3-difluorocyclobutyl)pyridin-3-yl)-3-(5,6-difluoro-1H-indol-3-yl)urea] gave an EC50 of 200 to 1000 nM.
With `O=C(Nc1cnc(N2CCN(CC(F)(F)F)CC2)c(Cl)c1)Nc1c[nH]c2ccc(Cl)cc12` [Compound 126, 1-(5-chloro-1H-indol-3-yl)-3-(5-chloro-6-(4-(2,2,2-trifluoroethyl)piperazin-1-yl)pyridin-3-yl)urea] the EC50 was 40 to 200 nM.
`O=C(Nc1cnc(N2CCC(F)(F)CC2)c(CCO)c1)Nc1c[nH]c2ccc(Cl)cc12` [Compound 127, 1-(5-chloro-1H-indol-3-yl)-3-(6-(4,4-difluoropiperidin-1-yl)-5-(2-hydroxyethyl)pyridin-3-yl)urea] showed an EC50 of 200 to 1000 nM.
In the case of `O=C(Nc1ccc(N2CCC(F)(F)CC2)nc1)Nc1c[nH]c2cc(Cl)c(Cl)cc12` [Compound 128, 1-(5,6-dichloro-1H-indol-3-yl)-3-(6-(4,4-difluoropiperidin-1-yl)pyridin-3-yl)urea], the EC50 is reported as 1000 to 5000 nM.
`Cc1cc(NC(=O)Nc2c[nH]c3ccc(Cl)cc23)cnc1N1CC2(C1)CC(F)(F)C2` [Compound 129, 1-(5-chloro-1H-indol-3-yl)-3-(6-(6,6-difluoro-2-azaspiro[3.3]heptan-2-yl)-5-methylpyridin-3-yl)urea] gave an EC50 of 40 to 200 nM.
With `O=C(Nc1ccc(C2CCC(F)(F)CC2)nc1)Nc1c[nH]c2ccc(Cl)cc12` [Compound 130, 1-(5-chloro-1H-indol-3-yl)-3-(6-(4,4-difluorocyclohexyl)pyridin-3-yl)urea] the EC50 was 40 to 200 nM.
Work on `CCc1cc(NC(=O)Nc2c[nH]c3ccc(Cl)cc23)cnc1N1CCC(F)(F)CC1` [Compound 131, 1-(5-chloro-1H-indol-3-yl)-3-(6-(4,4-difluoropiperidin-1-yl)-5-ethylpyridin-3-yl)urea] yielded an EC50 of 40 to 200 nM.
In the case of `CCc1cc(NC(=O)Nc2c[nH]c3ccc(F)cc23)cnc1N1CCC(F)(F)CC1` [Compound 132, 1-(6-(4,4-difluoropiperidin-1-yl)-5-ethylpyridin-3-yl)-3-(5-fluoro-1H-indol-3-yl)urea], the EC50 is reported as 40 to 200 nM.
With `Cc1cc(NC(=O)Nc2c[nH]c3ccc(Cl)cc23)cnc1C1CCN(CC(F)(F)F)CC1` [Compound 133, 1-(5-chloro-1H-indol-3-yl)-3-(5-methyl-6-(1-(2,2,2-trifluoroethyl)piperidin-4-yl)pyridin-3-yl)urea] the EC50 was 40 to 200 nM.
Work on `COCCN1CCN(c2ncc(NC(=O)Nc3c[nH]c4cc(F)c(F)cc34)cc2Cl)CC1` [Compound 134, 1-(5-chloro-6-(4-(2-methoxyethyl)piperazin-1-yl)pyridin-3-yl)-3-(5,6-difluoro-1H-indol-3-yl)urea] yielded an EC50 of 1000 to 5000 nM.
For `COCCN1CCN(c2ncc(NC(=O)Nc3c[nH]c4ccc(Cl)cc34)cc2Cl)CC1` [Compound 135, 1-(5-chloro-1H-indol-3-yl)-3-(5-chloro-6-(4-(2-methoxyethyl)piperazin-1-yl)pyridin-3-yl)urea], the EC50 was 200 to 1000 nM.
With `O=C(Nc1cnc(C2CCC(F)(F)CC2)c(CO)c1)Nc1c[nH]c2ccc(Cl)cc12` [Compound 136, 1-(5-chloro-1H-indol-3-yl)-3-(6-(4,4-difluorocyclohexyl)-5-(hydroxymethyl)pyridin-3-yl)urea] the EC50 was 200 to 1000 nM.
With `O=C(Nc1cnc(N2CC3(C2)CC(F)(F)C3)c(F)c1)Nc1c[nH]c2ccc(Cl)cc12` [Compound 137, 1-(5-chloro-1H-indol-3-yl)-3-(6-(6,6-difluoro-2-azaspiro[3.3]heptan-2-yl)-5-fluoropyridin-3-yl)urea] the EC50 was 40 to 200 nM.
For `O=C(Nc1cnc(N2CC3(C2)CC(F)(F)C3)c(Cl)c1)Nc1c[nH]c2ccc(Cl)cc12` [Compound 138, 1-(5-chloro-1H-indol-3-yl)-3-(5-chloro-6-(6,6-difluoro-2-azaspiro[3.3]heptan-2-yl)pyridin-3-yl)urea], the EC50 was 40 to 200 nM.
Molecule `O=C(Nc1ccc(C2CC(F)(F)C2)c(F)c1)Nc1c[nH]c2ccc(Cl)cc12` [Compound 139, 1-(5-chloro-1H-indol-3-yl)-3-(4-(3,3-difluorocyclobutyl)-3-fluorophenyl)urea] has an EC50 of 40 to 200 nM.
In the case of `O=C(Nc1cnc(C2CCC(F)(F)CC2)c(Cl)c1)Nc1c[nH]c2cc(Cl)ccc12` [Compound 140, 1-(6-chloro-1H-indol-3-yl)-3-(5-chloro-6-(4,4-difluorocyclohexyl)pyridin-3-yl)urea], the EC50 is reported as 1000 to 5000 nM.
In the case of `O=C(Nc1cnc(C2CCC(F)(F)CC2)c(Cl)c1)Nc1c[nH]c2cc(F)ccc12` [Compound 141, 1-(5-chloro-6-(4,4-difluorocyclohexyl)pyridin-3-yl)-3-(6-fluoro-1H-indol-3-yl)urea], the EC50 is reported as 200 to 1000 nM.
With `C[C@@H]1CN(c2ncc(NC(=O)Nc3c[nH]c4cc(F)c(F)cc34)cc2Cl)C[C@@H](C)O1` [Compound 142, 1-(5-chloro-6-((2R,6R)-2,6-dimethylmorpholino)pyridin-3-yl)-3-(5,6-difluoro-1H-indol-3-yl)urea] the EC50 was 40 to 200 nM.
Work on `O=C(Nc1cnc(N2CCC(F)(F)CC2)c(CCO)c1)Nc1c[nH]c2cc(F)c(F)cc12` [Compound 143, 1-(5,6-difluoro-1H-indol-3-yl)-3-(6-(4,4-difluoropiperidin-1-yl)-5-(2-hydroxyethyl)pyridin-3-yl)urea] yielded an EC50 of 200 to 1000 nM.
For `O=C(Nc1cnc(C2CC(F)(F)C2)c(Cl)c1)Nc1c[nH]c2ccc(Cl)cc12` [Compound 144, 1-(5-chloro-1H-indol-3-yl)-3-(5-chloro-6-(3,3-difluorocyclobutyl)pyridin-3-yl)urea], the EC50 was 40 to 200 nM.
`O=C(Nc1cnc(N2CCC3(CCCCO3)CC2)c(F)c1)Nc1c[nH]c2cc(F)ccc12` [Compound 145, 1-(6-fluoro-1H-indol-3-yl)-3-(5-fluoro-6-(1-oxa-9-azaspiro[5.5]undecan-9-yl)pyridin-3-yl)urea] showed an EC50 of 200 to 1000 nM.
In the case of `C[C@@H]1CN(c2ncc(NC(=O)Nc3c[nH]c4cc(F)c(F)cc34)cc2Cl)C[C@H](C)O1` [Compound 146, 1-(5-chloro-6-((2R,6S)-2,6-dimethylmorpholino)pyridin-3-yl)-3-(5,6-difluoro-1H-indol-3-yl)urea], the EC50 is reported as 40 to 200 nM.
`C[C@H]1CN(c2ncc(NC(=O)Nc3c[nH]c4cc(F)c(F)cc34)cc2Cl)C[C@H](C)O1` [Compound 147, 1-(5-chloro-6-((2S,6S)-2,6-dimethylmorpholino)pyridin-3-yl)-3-(5,6-difluoro-1H-indol-3-yl)urea] gave an EC50 of 40 to 200 nM.
`CO[C@H]1CCCN(c2ncc(NC(=O)Nc3c[nH]c4cc(F)c(F)cc34)cc2Cl)C1` [Compound 148, (S)-1-(5-chloro-6-(3-methoxypiperidin-1-yl)pyridin-3-yl)-3-(5,6-difluoro-1H-indol-3-yl)urea] gave an EC50 of 40 to 200 nM.
In the case of `CO[C@@H]1CCCN(c2ncc(NC(=O)Nc3c[nH]c4cc(F)c(F)cc34)cc2Cl)C1` [Compound 149, (R)-1-(5-chloro-6-(3-methoxypiperidin-1-yl)pyridin-3-yl)-3-(5,6-difluoro-1H-indol-3-yl)urea], the EC50 is reported as 200 to 1000 nM.
For `COCCO[C@H]1CCN(c2ncc(NC(=O)Nc3c[nH]c4cc(F)c(F)cc34)cc2Cl)C1` [Compound 150, (S)-1-(5-chloro-6-(3-(2-methoxyethoxy)pyrrolidin-1-yl)pyridin-3-yl)-3-(5,6-difluoro-1H-indol-3-yl)urea], the EC50 was 200 to 1000 nM.
For `Cc1cc(NC(=O)Nc2c[nH]c3cc(F)c(F)cc23)cnc1N1CCO[C@@H](C)C1` [Compound 151, (S)-1-(5,6-difluoro-1H-indol-3-yl)-3-(5-methyl-6-(2-methylmorpholino)pyridin-3-yl)urea], the EC50 was 200 to 1000 nM.
`COCCO[C@@H]1CCN(c2ncc(NC(=O)Nc3c[nH]c4cc(F)c(F)cc34)cc2C)C1` [Compound 152, (R)-1-(5,6-difluoro-1H-indol-3-yl)-3-(6-(3-(2-methoxyethoxy)pyrrolidin-1-yl)-5-methylpyridin-3-yl)urea] showed an EC50 of 1000 to 5000 nM.
`CC1(C)CN(c2ncc(NC(=O)Nc3c[nH]c4cc(F)c(F)cc34)cc2Cl)CCO1` [Compound 153, 1-(5-chloro-6-(2,2-dimethylmorpholino)pyridin-3-yl)-3-(5,6-difluoro-1H-indol-3-yl)urea] gave an EC50 of 40 to 200 nM.
With `O=C(Nc1cc(Cl)c(C2CCC(F)(F)CC2)cn1)Nc1c[nH]c2cc(F)c(F)cc12` [Compound 154, 1-(4-chloro-5-(4,4-difluorocyclohexyl)pyridin-2-yl)-3-(5,6-difluoro-1H-indol-3-yl)urea] the EC50 was 40 to 200 nM.
